Experimental data: the supplement of paper PMC10307832

Key:
Test in all cases: relative viability (nuclei count vs DMSO), 5 days (fraction); higher = more cells survive
Metformin + Trametinib = compound: CN(C)C(=N)NC(=N)N [Metformin] + CC(=O)Nc1cccc(-n2c(=O)n(C3CC3)c(=O)c3c(Nc4ccc(I)cc4F)n(C)c(=O)c(C)c32)c1 [Trametinib] (partner 0.02 µM)
In short: (§1)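 Nuclei were stained with Hoechst during a one-step fixation (final 0.05% Triton X-100, 1% formaldehyde, 1 ug/ml Hoechst) carried out 5 days after dosing, then counted on 4× images. The cells, lung cancer lines in 1536-well plates, had been dosed by pin tool the day after seeding with one drug alone or a fixed anchor-drug dose plus five library-drug doses (not always all listed) in √10 steps. Relative viability is the nuclei count in treated wells divided by that in vehicle wells, and each value is the median of duplicate plates.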

Metformin + Palbociclib = compound: CN(C)C(=N)NC(=N)N [Metformin] + CC(=O)c1c(C)c2cnc(Nc3ccc(N4CCNCC4)cn3)nc2n(C2CCCC2)c1=O [Palbociclib] (partner 0.5 µM)
In short: as §1

Metformin + Navitoclax = compound: CN(C)C(=N)NC(=N)N [Metformin] + CC1(C)CCC(c2ccc(Cl)cc2)=C(CN2CCN(c3ccc(C(=O)NS(=O)(=O)c4ccc(N[C@H](CCN5CCOCC5)CSc5ccccc5)c(S(=O)(=O)C(F)(F)F)c4)cc3)CC2)C1 [Navitoclax] (partner 0.5 µM)
In short: as §1

Metformin + Linsitinib = compound: CN(C)C(=N)NC(=N)N [Metformin] + C[C@]1(O)C[C@@H](c2nc(-c3ccc4ccc(-c5ccccc5)nc4c3)c3c(N)nccn32)C1 [Linsitinib] (partner 1 µM)
In short: as §1

| Cell Line | relative viability (Metformin + Trametinib; first compound 10 µM) | relative viability (Metformin + Trametinib; first compound 31.62 µM) | relative viability (Metformin + Trametinib; first compound 100 µM) | relative viability (Metformin + Trametinib; first compound 316.23 µM) | relative viability (Metformin + Trametinib; first compound 1000 µM) | relative viability (Metformin + Palbociclib; first compound 10 µM) | relative viability (Metformin + Palbociclib; first compound 31.62 µM) | relative viability (Metformin + Palbociclib; first compound 100 µM) | relative viability (Metformin + Palbociclib; first compound 316.23 µM) | relative viability (Metformin + Palbociclib; first compound 1000 µM) | relative viability (Metformin + Navitoclax; first compound 10 µM) | relative viability (Metformin + Navitoclax; first compound 31.62 µM) | relative viability (Metformin + Navitoclax; first compound 100 µM) | relative viability (Metformin + Navitoclax; first compound 316.23 µM) | relative viability (Metformin + Navitoclax; first compound 1000 µM) | relative viability (Metformin + Linsitinib; first compound 10 µM) | relative viability (Metformin + Linsitinib; first compound 31.62 µM) | relative viability (Metformin + Linsitinib; first compound 100 µM) | relative viability (Metformin + Linsitinib; first compound 316.23 µM) | relative viability (Metformin + Linsitinib; first compound 1000 µM) |
| --- | --- | --- | --- | --- | --- | --- | --- | --- | --- | --- | --- | --- | --- | --- | --- | --- | --- | --- | --- | --- |
| LXF-289 | 0.645 | 0.658 | 0.641 | 0.602 | 0.602 | 0.516 | 0.557 | 0.568 | 0.535 | 0.564 | 0.912 | 0.918 | 0.939 | 0.914 | 0.901 | 0.923 | 0.912 | 0.996 | 0.879 | 0.915 |
| NCI-H23 | 0.433 | 0.492 | 0.384 | 0.385 | 0.575 | 0.583 | 0.563 | 0.495 | 0.508 | 0.553 | 0.82 | 0.902 | 0.805 | 0.839 | 0.993 | 0.701 | 0.623 | 0.705 | 0.675 | 0.763 |
| NCI-H322M | 0.518 | 0.487 | 0.506 | 0.561 | 0.529 | 0.54 | 0.495 | 0.512 | 0.551 | 0.488 | 1.19 | 1.28 | 1.02 | 1.14 | 1.19 | 1.04 | 0.954 | 0.934 | 0.864 | 0.915 |
| NCI-H441 | – | 0.575 | 0.573 | 0.442 | 0.639 | – | 0.211 | 0.165 | 0.215 | 0.238 | 0.408 | – | 0.55 | – | 0.486 | 0.432 | – | 0.536 | 0.478 | 0.605 |
| NCI-H460 | – | 0.122 | 0.136 | 0.133 | 0.253 | – | 0.191 | 0.249 | 0.105 | 0.148 | – | 1.22 | 1.16 | 1.02 | 1.14 | – | 0.772 | 0.774 | 0.662 | 0.843 |
| NCI-H520 | 0.798 | 0.622 | 0.739 | 0.505 | 0.762 | 0.271 | 0.269 | 0.277 | 0.22 | 0.269 | 1.1 | 1.08 | 1.13 | 0.979 | 1.19 | 1.09 | 0.842 | 1.02 | 0.914 | 0.931 |
| NCI-H647 | 0.479 | 0.598 | 0.498 | 0.482 | 0.556 | 0.222 | 0.436 | 0.555 | 0.382 | 0.417 | 0.869 | 1.13 | 1.44 | 1.12 | 0.763 | 1.11 | 1.14 | 1.24 | 1.19 | 1.2 |
| NCI-H727 | 0.404 | 0.369 | 0.41 | – | 0.349 | 0.672 | 0.78 | 0.818 | – | 0.618 | 0.503 | 0.514 | 0.496 | 0.512 | 0.535 | 0.289 | 0.342 | 0.304 | 0.298 | 0.35 |
| NCI-H838 | 0.557 | 0.572 | 0.541 | 0.525 | 0.579 | 0.295 | 0.278 | 0.261 | 0.271 | 0.298 | 1.19 | 1.23 | 1.21 | 1.15 | 1.22 | 1.04 | 1.09 | 1.05 | 0.988 | 1.02 |
| NCI-H1355 | 0.416 | 0.356 | 0.395 | 0.474 | 0.427 | 0.341 | 0.36 | 0.382 | 0.358 | 0.383 | 0.936 | 1.02 | 0.955 | 0.719 | 0.903 | 0.782 | 0.783 | 0.756 | 0.731 | 0.854 |
| NCI-H1395 | 0.945 | 1.05 | 0.896 | 0.974 | 0.756 | 0.504 | 0.716 | 0.627 | 0.508 | 0.448 | 1.11 | 1.32 | 1.06 | 0.958 | 1.1 | 0.997 | 1.15 | 0.934 | 1.02 | 0.385 |
| NCI-H1437 | 0.638 | 0.703 | 0.631 | 0.701 | 0.627 | 0.384 | 0.459 | 0.439 | 0.389 | 0.4 | 1.08 | 1.08 | 1.12 | 0.979 | 1.08 | 1.22 | 1.09 | 1.11 | 1.1 | 1.19 |
| NCI-H1651 | 0.908 | 0.999 | 1.01 | 0.903 | 1 | 0.556 | 0.681 | 0.652 | 0.519 | 0.605 | 1.14 | 1.38 | 1.27 | 1.21 | 1.46 | 1.3 | 1.23 | 1.35 | 1.21 | 1.43 |
| NCI-H1666 | 0.687 | 0.676 | 0.759 | 0.771 | 0.941 | 0.695 | 0.616 | 0.642 | 0.681 | 0.714 | 1.17 | 1.05 | 0.956 | 0.899 | 1.07 | 0.863 | 1 | 0.962 | 0.703 | 1.09 |
| NCI-H1734 | 0.652 | 0.763 | 0.653 | 0.662 | 0.726 | 0.284 | 0.329 | 0.292 | 0.359 | 0.371 | 0.882 | 0.863 | 0.908 | 0.822 | 0.905 | 0.99 | 0.954 | 1.05 | 0.844 | 0.946 |
